Source: ChEMBL document CHEMBL1127068, “Selective inhibition of mammalian lanosterol 14 alpha-demethylase: a possible strategy for cholesterol lowering” (J Med Chem, 1993)

Tests used:
[1] = target: T1, Aromatase (Homo sapiens, UniProt P11511); test: Binding affinity for Cytochrome P450 19A1
T1 sequence (P11511 whole entry): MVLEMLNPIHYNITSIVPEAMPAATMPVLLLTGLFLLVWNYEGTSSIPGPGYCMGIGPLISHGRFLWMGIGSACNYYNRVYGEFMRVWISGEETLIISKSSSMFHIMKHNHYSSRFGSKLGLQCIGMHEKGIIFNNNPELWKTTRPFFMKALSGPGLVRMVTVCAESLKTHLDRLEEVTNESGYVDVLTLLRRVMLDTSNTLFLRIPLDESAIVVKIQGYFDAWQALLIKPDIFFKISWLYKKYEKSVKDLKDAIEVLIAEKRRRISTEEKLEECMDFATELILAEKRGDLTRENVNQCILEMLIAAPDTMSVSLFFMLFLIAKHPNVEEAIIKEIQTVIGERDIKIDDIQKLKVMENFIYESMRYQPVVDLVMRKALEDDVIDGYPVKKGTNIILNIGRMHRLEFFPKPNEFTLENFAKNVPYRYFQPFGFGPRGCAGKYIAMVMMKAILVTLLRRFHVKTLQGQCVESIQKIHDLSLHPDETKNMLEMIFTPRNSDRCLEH

[2] = test system: Cricetinae gen. sp.; test: Effect on total serum cholesterol in male hamsters at a dose of 10 mg/kg orally administered for 14 days; assay type: functional, Cricetulus griseus; conditions: route oral
[3] = test system: Cricetinae gen. sp.; test: Percentage lowering of the total serum cholesterol in male hamsters at a dose of 100 […] orally administered for 3 days; assay type: functional, Cricetulus griseus
[4] = test system: Cricetinae gen. sp.; test: Percentage lowering of the total serum cholesterol in male hamsters at a dose of 25 mg/dL orally administered for 14 days; assay type: functional, Cricetulus griseus
[5] = test system: Cricetinae gen. sp.; test: Percentage lowering of the total serum cholesterol in male hamsters at a dose of 30 mg/dL orally administered for 3 days; assay type: functional, Cricetulus griseus
[6] = test system: Cricetinae gen. sp.; test: Percentage lowering of the total serum cholesterol in male hamsters at a dose of 5 mg/dL orally administered for 14 days; assay type: functional, Cricetulus griseus
[7] = test system: Cricetinae gen. sp.; test: Effect on total serum cholesterol in male hamsters at a dose of 10 mg/kg orally administered for 3 days; assay type: functional, Cricetulus griseus; conditions: route oral
[8] = test system: Cricetinae gen. sp.; test: Effect on total serum cholesterol in male hamsters at a dose of 100 mg/kg orally administered for 3 days; assay type: functional, Cricetulus griseus; conditions: route oral
[9] = test system: Cricetinae gen. sp.; test: Effect on total serum cholesterol in male hamsters at a dose of 25 mg/kg orally administered for 14 days; assay type: functional, Cricetulus griseus; conditions: route oral
[10] = test system: Cricetinae gen. sp.; test: Effect on total serum cholesterol in male hamsters at a dose of 30 mg/kg orally administered for 3 days; assay type: functional, Cricetulus griseus; conditions: route oral
[11] = test system: Cricetinae gen. sp.; test: Effect on total serum cholesterol in male hamsters at a dose of 5 mg/kg orally administered for 14 days; assay type: functional, Cricetulus griseus; conditions: route oral
[12] = test system: Cricetinae gen. sp.; test: Effect on total serum cholesterol in male hamsters at a dose of 50 mg/kg orally administered for 14 days; assay type: functional, Cricetulus griseus; conditions: route oral
[13] = test system: Cricetinae gen. sp.; test: Percentage lowering of the total serum cholesterol in male hamsters at a dose of 50 mg/dL orally administered for 14 days; assay type: functional, Cricetulus griseus
[14] = test system: Cricetinae gen. sp.; test: Percentage lowering of the total serum cholesterol in male hamsters at a dose of 10 […] orally administered for 14 days; assay type: functional, Cricetulus griseus
[15] = test system: Cricetinae gen. sp.; test: Percentage lowering of the total serum cholesterol in male hamsters at a dose of 10 […] orally administered for 3 days; assay type: functional, Cricetulus griseus
[16] = Inhibition of lanosterol 14-alpha-demethylation in hepatic microsomes from hamster; assay type: functional, Cricetulus griseus, Liver
[17] = Inhibition of lanosterol 14-alpha-demethylation in hepatic microsomes from human; assay type: functional, Liver
[18] = Inhibition of lanosterol 14-alpha-demethylation in hepatic microsomes from rat; assay type: functional, Liver
[19] = species: Homo sapiens; test: Inhibition of cellular cholesterol biosynthesis using human fibroblasts in tissue culture; assay type: functional, organism-based
[20] = target: T2, Cytochrome P450 11B1, mitochondrial (Homo sapiens, UniProt P15538); test: Binding affinity for corticoid 11-beta-hydroxylase
T2 sequence (P15538 whole entry): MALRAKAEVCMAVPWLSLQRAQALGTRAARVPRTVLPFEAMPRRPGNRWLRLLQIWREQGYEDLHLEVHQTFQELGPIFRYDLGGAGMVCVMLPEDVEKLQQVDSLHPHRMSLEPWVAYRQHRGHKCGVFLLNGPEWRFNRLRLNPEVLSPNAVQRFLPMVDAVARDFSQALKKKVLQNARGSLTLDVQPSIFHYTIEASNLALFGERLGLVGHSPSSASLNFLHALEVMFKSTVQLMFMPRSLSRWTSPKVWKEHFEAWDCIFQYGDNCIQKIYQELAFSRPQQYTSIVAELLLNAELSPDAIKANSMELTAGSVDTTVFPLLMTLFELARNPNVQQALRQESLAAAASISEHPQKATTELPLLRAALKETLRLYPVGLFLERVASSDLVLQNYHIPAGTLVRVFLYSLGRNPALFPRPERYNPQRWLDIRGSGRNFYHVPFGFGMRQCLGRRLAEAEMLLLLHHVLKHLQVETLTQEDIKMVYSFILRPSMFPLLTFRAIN

[21] = target: T3, Steroid 17-alpha-hydroxylase/17,20 lyase (Homo sapiens, UniProt P05093); test: Binding affinity for progesterone 17-alpha,20-lyase
T3 sequence (P05093 whole entry): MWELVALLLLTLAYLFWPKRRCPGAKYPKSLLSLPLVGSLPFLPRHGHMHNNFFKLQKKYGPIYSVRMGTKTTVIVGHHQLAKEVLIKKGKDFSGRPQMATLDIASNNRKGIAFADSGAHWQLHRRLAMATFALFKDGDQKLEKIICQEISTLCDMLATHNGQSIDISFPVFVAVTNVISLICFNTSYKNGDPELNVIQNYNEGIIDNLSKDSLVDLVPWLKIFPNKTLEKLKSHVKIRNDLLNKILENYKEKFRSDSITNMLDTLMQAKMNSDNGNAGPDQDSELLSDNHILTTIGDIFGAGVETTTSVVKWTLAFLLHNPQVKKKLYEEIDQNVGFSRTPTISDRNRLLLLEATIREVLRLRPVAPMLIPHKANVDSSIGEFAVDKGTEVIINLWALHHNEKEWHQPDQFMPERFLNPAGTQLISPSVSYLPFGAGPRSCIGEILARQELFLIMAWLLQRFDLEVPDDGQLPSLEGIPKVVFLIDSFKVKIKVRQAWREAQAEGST

[22] = target: Cytochrome P450 3A4 (Homo sapiens, UniProt P08684); test: Binding affinity for progesterone 6-beta-hydroxylase of hepatic microsomes; assay type: ADME
Cytochrome P450 3A4, sequence (P08684 whole entry): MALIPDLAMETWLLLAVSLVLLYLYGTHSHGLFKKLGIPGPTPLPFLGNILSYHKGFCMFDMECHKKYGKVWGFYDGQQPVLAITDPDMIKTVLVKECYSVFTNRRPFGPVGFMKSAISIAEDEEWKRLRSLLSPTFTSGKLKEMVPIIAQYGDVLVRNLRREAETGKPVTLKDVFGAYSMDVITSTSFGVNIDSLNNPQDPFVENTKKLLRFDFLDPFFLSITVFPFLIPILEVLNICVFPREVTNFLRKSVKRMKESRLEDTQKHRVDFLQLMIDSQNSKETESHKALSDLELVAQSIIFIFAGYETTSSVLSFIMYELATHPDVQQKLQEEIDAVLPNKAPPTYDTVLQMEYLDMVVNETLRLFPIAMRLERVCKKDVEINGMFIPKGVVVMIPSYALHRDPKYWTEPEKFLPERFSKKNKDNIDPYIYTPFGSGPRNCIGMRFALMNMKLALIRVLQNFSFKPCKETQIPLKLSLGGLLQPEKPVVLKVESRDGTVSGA

[23] = target: T3, Steroid 17-alpha-hydroxylase/17,20 lyase; test: Binding affinity for […] 17-alpha-hydroxylase
[24] = test system: Cricetinae gen. sp.; test: Effect on total serum cholesterol in male hamsters at a dose of 100 mg/kg orally administered for 14 days; assay type: functional, Cricetulus griseus; conditions: route oral
[25] = test system: Cricetinae gen. sp.; test: Effect on total serum cholesterol in male hamsters at a dose of 60 mg/kg orally administered for 3 days; assay type: functional, Cricetulus griseus; conditions: route oral
[26] = test system: Cricetinae gen. sp.; test: Percentage lowering of the total serum cholesterol in male hamsters at a dose of 100 […] orally administered for 14 days; assay type: functional, Cricetulus griseus
[27] = test system: Cricetinae gen. sp.; test: Percentage lowering of the total serum cholesterol in male hamsters at a dose of 60 […] orally administered for 3 days; assay type: functional, Cricetulus griseus
[28] = test system: Cricetinae gen. sp.; test: Percentage increase of the total serum cholesterol in male hamsters at a dose of 25 […] orally administered for 14 days; assay type: functional, Cricetulus griseus
[29] = test system: Cricetinae gen. sp.; test: Percentage increase of the total serum cholesterol in male hamsters at a dose of 10 […] orally administered for 14 days; assay type: functional, Cricetulus griseus
[30] = test system: Cricetinae gen. sp.; test: Effect on total serum cholesterol in male hamsters at a dose of 200 mg/kg orally administered for 14 days; assay type: functional, Cricetulus griseus; conditions: route oral
[31] = test system: Cricetinae gen. sp.; test: Percentage lowering of the total serum cholesterol in male hamsters at a dose of 200 […] orally administered for 14 days; assay type: functional, Cricetulus griseus
[32] = target: T4, Lanosterol 14-alpha demethylase (Rattus norvegicus, UniProt Q64654); test: Inhibition of lanosterol 14-alpha-demethylase of rat hepatic microsomes
T4 sequence (Q64654 whole entry): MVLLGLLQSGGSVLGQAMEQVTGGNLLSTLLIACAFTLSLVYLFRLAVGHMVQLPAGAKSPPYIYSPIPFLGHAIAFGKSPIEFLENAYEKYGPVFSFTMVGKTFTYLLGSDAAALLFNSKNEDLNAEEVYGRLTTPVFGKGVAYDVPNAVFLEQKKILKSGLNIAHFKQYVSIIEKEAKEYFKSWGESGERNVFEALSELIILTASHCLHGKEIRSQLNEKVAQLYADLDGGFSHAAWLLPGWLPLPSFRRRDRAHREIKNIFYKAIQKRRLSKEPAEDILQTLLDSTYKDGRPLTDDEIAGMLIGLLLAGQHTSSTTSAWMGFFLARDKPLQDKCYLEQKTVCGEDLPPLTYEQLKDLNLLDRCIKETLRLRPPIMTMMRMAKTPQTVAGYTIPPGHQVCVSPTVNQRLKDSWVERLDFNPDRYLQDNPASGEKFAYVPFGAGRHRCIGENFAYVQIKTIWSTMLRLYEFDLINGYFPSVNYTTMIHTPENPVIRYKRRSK

Nc1ccc(SC[C@@H]2CO[C@](CCc3ccc(Cl)cc3)(Cn3ccnc3)O2)cc1 [AZALANSTAT]
Ki [1]: 7.6 nM | TC [2]: 104 mg/dL | Lowering [3]: 62% | Lowering [4]: 30% | Lowering [5]: 36% | Lowering [6]: 2% | TC [7]: 85.1 mg/dL | TC [8]: 41.8 mg/dL | TC [9]: 82.9 mg/dL | TC [10]: 71 mg/dL | TC [11]: 115.5 mg/dL | TC [12]: 74.7 mg/dL | Lowering [13]: 37% | Lowering [14]: 12% | Lowering [15]: 23% | Ki [16]: 1.4 nM | Ki [17]: 0.79 nM | Ki [18]: 2.5 nM | IC50 [19]: 0.09 nM | Ki [20]: 35 nM | Ki [21]: 447 nM | Ki [22]: 28 nM | Ki [23]: 1620 nM

Nc1ccc(SC[C@@H]2CO[C@@](CCc3ccc(Cl)cc3)(Cn3ccnc3)O2)cc1
TC [2]: 125.2 mg/dL | TC [24]: 113.3 mg/dL | TC [9]: 125.8 mg/dL | TC [12]: 112.4 mg/dL | TC [25]: 120.4 mg/dL | Lowering [26]: 4% | Lowering [13]: 6% | Lowering [27]: 15% | Increase [28]: 6% | Increase [29]: 6%

CC(=O)N1CCN(c2ccc(OCC3COC(Cn4ccnc4)(c4ccc(Cl)cc4Cl)O3)cc2)CC1 (stereo not drawn) [KETOCONAZOLE]
TC [24]: 105 mg/dL | TC [30]: 83.1 mg/dL | TC [9]: 125.2 mg/dL | TC [12]: 111.4 mg/dL | Lowering [26]: 11% | Lowering [31]: 30% | Lowering [13]: 6% | Increase [28]: 6% | IC50 [19]: 37 nM | Ki [32]: 65 nM
